Results on one compound are retold here after publication PMC6392468, “Inhibition of lipid droplet formation by Ser/Thr protein phosphatase PPM1D inhibitor, SL-176” (PLoS ONE, 2019).

The target of this assay is T1, PPM1D (Mus musculus, UniProt Q9QZ67).
T1 construct: His-mousePPM1D (1–413)
T1 sequence (Q9QZ67 1-413): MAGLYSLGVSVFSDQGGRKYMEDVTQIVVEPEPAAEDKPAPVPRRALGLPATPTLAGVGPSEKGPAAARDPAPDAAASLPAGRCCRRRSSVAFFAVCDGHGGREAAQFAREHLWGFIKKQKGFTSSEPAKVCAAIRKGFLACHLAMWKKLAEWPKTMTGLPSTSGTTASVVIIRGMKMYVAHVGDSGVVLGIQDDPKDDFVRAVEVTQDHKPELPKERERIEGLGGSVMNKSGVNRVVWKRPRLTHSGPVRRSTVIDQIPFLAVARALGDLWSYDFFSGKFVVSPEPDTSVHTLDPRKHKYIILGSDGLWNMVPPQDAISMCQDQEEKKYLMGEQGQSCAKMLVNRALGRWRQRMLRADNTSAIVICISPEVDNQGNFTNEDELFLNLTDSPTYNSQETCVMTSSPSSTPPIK
Nature of the assay: in vitro phosphatase assay, released free phosphate by BIOMOL GREEN, p53-derived peptide substrate. The assay is classed as biochemical.

Consider `CC[Si](CC)(CC)O[C@@H]1CCC[C@@H]2[C@@H]1C[C@H](O[Si](C)(C)C(C)(C)C)C[C@@]2(C)C(=O)O` [SL-176], for which the IC50 is 112 ± 12 nM.

Broadly, the IC50 is the concentration that inhibits the measured activity by half.
